# Measurements taken from patent US9138449B2, “Medicinal composition for liver diseases” (Shanghai Sundise Chinese Medicine Technology Development …, priority 2006, dated 2015).
# Marks after values point to notes of the source that are not given here.
# Columns and labels:
# [1] = system: hepatic fibrosis in rats induced by dimethylnitrosamine (DMN); assay: Treatment effect on hepatic fibrosis in rats induced by dimethylnitrosamine (DMN); type: in vivo, rat
# Method: Pharmacological model: The hepatic fibrosis model was induced by intraperitoneal injections of dimethylnitrosamine at a dosage of […] rat wt, the injection was given on the first consecutive 3 days of each week over a period of 4 weeks, once per day.
# Groups and drug administration: After establishing the model, the model rats were divided into model control, Fuzheng Huayu Prep I, Fuzheng Huayu Prep II, and (N-Acetylcysteine, NAC) groups, also normal rats was set as the normal control, with total 5 groups. The model rats in Fuzheng Huayu Prep I and II took orally Fuzheng Huayu decoction at the dosage of 4.6 g/kg rat wt from the beginning of the 5th week to end of the 8th week, one time per day for 4 weeks, NAC group received NAC at the dosage of 100 mg/kg wt, and controls took the same volume of saline. (body weight equivalent to 10 times of 65 kg adult dosage).
# [2] = system: liver fibrosis model in rat induced by CCl4; assay: Prophylaxis action on liver fibrosis in rats induced by CCl4 with high lipid, low protein food; type: in vivo
# Method: Pharmacological model: The liver fibrosis model in rat was induced by hypodermical injection of CCl4 and fed with the food containing high lipid and low protein. 100 wt % CCl4 was used at the first injection with a dosage of 1 ml/kg wt rat, then 40 wt % CCl4 in olive oil with a dosage of 3 ml/kg wt. was applied, twice per week and lasting for 2 weeks. During the first 2 weeks of intoxication, the rats were fed with the food containing 79.5 wt % maizena, 20 wt % grease and 0.5 wt % cholesterol, then with the pure maize food for later 4 weeks.
# All dosages were 10 times human dosage with 65 kg by the same body weight.
# [3] = DMN fibrotic rats, 4 weeks treatment, x ± s
# [4] = Preps 4.6 g/kg or NAC 100 mg/kg once daily, weeks 5-8
# [5] = CCl4 fibrotic rats, 6 weeks dosing, x ± s
# [6] = Preps 4.6 g/kg or VitE 50 mg/kg orally once daily for 6 weeks
molecule,measurement,setting,value
"CC(=O)N[C@@H](CS)C(=O)O [NAC, N-Acetylcysteine]",Hepatic Hyp content,[1]; [3],482.1 ± 124.4 μg/g liver
same,Hepatic SOD activity,[1]; [3],252.2 ± 47.6^# 10^3 × NU/g protein
same,Serum ALT,[1]; [3],67.7 ± 36.1 U/L
same,Serum AST,[1]; [3],76.5 ± 25.5 U/L
same,Serum Alb,[1]; [3],30.9 ± 5.5 g/L
same,Serum T. BIL,[1]; [3],18.8 ± 2.8 µmol/L
same,Serum T. Protein,[1]; [3],60.4 ± 11.2 g/L
same,Liver fibrotic stage S0 (number of rats),[1]; [4],0
same,Liver fibrotic stage S1 (number of rats),[1]; [4],1
same,Liver fibrotic stage S2 (number of rats),[1]; [4],5
same,Liver fibrotic stage S3 (number of rats),[1]; [4],4
same,Liver fibrotic stage S4 (number of rats),[1]; [4],2
same,R (Ridit examination of liver fibrotic stages),[1]; [4],0.415^#
Vitamin E [Vit E],"Liver tissue pathological examination (hepatic inflammation, collagen deposition; HE and Sirius red staining), in words","[2]; CCl4 fibrotic rats, vs. model control",much better conditions of hepatic inflammation compared to the controls
same,Hepatic Hyp,[2]; [5],296.2 ± 49.8 μg/g liver
same,Hepatic MDA,[2]; [5],4.5 ± 1.3 μmol/g protien
same,Hepatic SOD,[2]; [5],1062 ± 83 NU/g liver
same,Hepatic Triglyceride,[2]; [5],12.6 ± 3.7 μg/g liver
same,Serum ALT,[2]; [5],106.4 ± 45.9 U/L
same,Serum AST,[2]; [5],127.7 ± 37.2 U/L
same,Serum T. BIL,[2]; [5],14.1 ± 3.3 µmol/L
same,Serum T. Protein,[2]; [5],55.8 ± 4.2 g/L
same,Liver fibrotic stage S0 (number of rats),[2]; [6],0
same,Liver fibrotic stage S1 (number of rats),[2]; [6],6
same,Liver fibrotic stage S2 (number of rats),[2]; [6],6
same,Liver fibrotic stage S3 (number of rats),[2]; [6],2
same,Liver fibrotic stage S4 (number of rats),[2]; [6],0
same,R (Ridit examination of liver fibrotic stages),[2]; [6],0.506^#
